In patent publication US20230364204A1, “Bioactive Peptides, Compositions, Production Process, and Use of Bioactive Peptides as Anti-Tumoral Agents” (priority 2022, published 2023):

How the values were obtained:
[1] = tested on: MDA-MB-231 cells implanted in zebrafish larvae; experiment: Zebrafish xenograft model of MDAMB231 (primary tumor and metastasis); type: in vivo; details: 72 h, 3-NantC co-implanted at 75, 100 or 125 mg/mL, Doxorubicin 2.5 µg/mL in embryo water
Experimental: Transgenic Tg(fli1:EGFP)y1 zebrafish embryos were raised at 28° C. for 48 hours in E3 embryo medium 0.2 mM 1-Phenyl-2-Thiourea aka PTU. […] MDA-MB-231 cells were labeled with Dil red fluorescent dye. Approximately 700 Dil Labeled cancer cells were subcutaneously co-implanted into the perivitelline space of 2 days old larvae ± 3-NantC peptide at […]. Larvae in which tumor cells had been inadvertently injected into circulation or larvae with erroneous implantation of the tumor in the yolk rather than the perivitelline space were excluded from the study. Selected tumor bearing embryos were sorted into experimental groups (20 embryos/group), and pictures of primary tumors were taken right after injection. Doxorubicin treatment was added to embryo water at 2.5 µg/mL according to the study plan. Tumor-bearing embryos were incubated in E3/PTU medium for 72 h at 36° C. After incubation, pictures of the primary tumors and the CVP were taken using a red fluorescent filter. Larvae that died or were lost by other means during the study were excluded from the final analysis.
Images obtained right after implantation (day 0) and after 72 h incubation (day 3) were analyzed by using in-house developed software. Tumor growth regression was calculated and normalized to the negative control group. The number of metastasized cells was counted manually. One-way ANOVA was performed followed by two-tailed Student’s t-test. Definitive outliers were detected using the ROUT method with a Q=1%. Graphs and example images, and experimental data were obtained/analyzed by using GraphPad Prism v9.0.2.

[2] = MTT cell viability, mammary benign cells; type: cell-based; details: human, MCF10A cells (mammary benign cells), read-out: viable cells (MTT)
Experimental: (§1) For the method of MTT, the cells were plated in 96-well sterile plates for cell culture with a cap at the density of 2 × 10^4 cells/well for treatments lasting 24 h and 1 × 10^4 cells/well for treatments lasting 48 h or more, completing the volume to 100 µL with culture medium. The plates were incubated for 8-16 h in an incubator at 37° C. and 5% CO2. The next day, the treatments were prepared in culture medium, applying 200 µL/well at the desired concentration, and the plates were placed in an incubator at 37° C. and 5% CO2for the duration of treatment. After the treatment period, 20 µL/well of a MTT solution was added in PBS (1×) at a concentration of 5 mg/mL, and the dye was incubated at 37° C. and 5% CO2 for 2.5 h. After incubation with MTT, Formazan salts were solubilized with the addition of 200 µL of dimethylsulfoxide solution (DMSO): isopropanol (3:1) and agitated for at least 15 minutes at room temperature. After complete dissolution of the salts, the absorbance was read in a spectrophotometer at 570 nm with endpoint protocol.
(§2) The calculation of cell viability was performed using the formula: […]
(§3) O.D.: optical density captured by spectrophotometer
(§4) NOTE: The Basal O.D. is the one found in the blank wells.

[3] = tested on: MDAMB231 cells (triple negative); experiment: MTT cell viability, tumor cells; type: cell-based
Experimental: as §1, §2, §3, §4
In order to determine the efficacy (comparison of doses and times for the MDAMB231 cell line) and safety (comparison between the effects on MDAMB231 and HDFa cells) of the peptide SEQ ID 1 - MFYPDSRCRGPSET (C-terminal region of Crotoxin B), named 3-NAntC, the Analysis of Variance (ANOVA) with Bonferroni post-hoc test was applied to the significance of 5% in GraphPad Prism software version 6.0.

Compound: COc1cccc2c1C(=O)c1c(O)c3c(c(O)c1C2=O)C[C@@](O)(C(=O)CO)C[C@@H]3O[C@H]1C[C@H](N)[C@H](O)[C@H](C)O1 [Doxorubicin, reference compound]
- decrease of tumor cells (primary tumor) [1]: about 35%

Compound: H-AIPFYAFY-OH [Peptide B, [H)-AIPFYAFY-(OH]]
- viability at 48 h [2]: ~85%

Compound: MFYPDSRSRGPSET [SEQ ID 10, 3-NAntC monomer]
- compared efficacy in decreasing MDAMB231 cells' viability (MTT, FIG. 13/14) ([3]; MDAMB231, SEQ IDs 2-10 compared to SEQ ID 1): interesting antitumor effect

Compound: [H]-HLLQ FNKMIKFETRKNAIPF-[OH] (N-terminal HLLQ) [Peptide A, peptide derived from the N-terminal region of Crotoxin B, reference compound]
- effect on viability of the tumor cells (MTT), in words ([3]; MDAMB231): did not decrease the viability
